This data set can be described thus: in vitro. The following applies: isolated enzyme chymotrypsin, pH 7.8.

Structures are written as SMILES.

Experimental findings from US20210221866A1, “PROTEASE-RESISTANT LIPIDATED GLP-1 ANALOGS” (MEDIMMUNE LIMITED, priority 2015, published 2021) are described below.

The share remaining is the share of the starting amount still present when the sample was taken. A high value points to less turnover.

Take `CCCCCCCCCCCCCCCC(=O)N[C@@H](CCC(=O)NCCCC[C@H](NC(=O)[C@H](C)NC(=O)[C@H](C)NC(=O)[C@H](CCC(N)=O)NC(=O)CNC(=O)[C@H](CCC(=O)O)NC(=O)[C@H](CC(C)C)NC(=O)[C@H](Cc1ccc(O)cc1)NC(=O)[C@H](CO)NC(=O)[C@H](CO)NC(=O)[C@@H](NC(=O)[C@H](CC(=O)O)NC(=O)[C@H](CO)NC(=O)[C@@H](NC(=O)[C@H](Cc1ccccc1)NC(=O)[C@@H](NC(=O)CNC(=O)[C@H](CCC(=O)O)NC(=O)[C@H](C)NC(=O)[C@@H](N)Cc1cnc[nH]1)[C@@H](C)O)[C@@H](C)O)C(C)C)C(=O)N[C@@H](CCC(=O)O)C(=O)N[C@@H](Cc1ccccc1)C(=O)N[C@H](C(=O)N[C@@H](C)C(=O)N[C@@H](Cc1c[nH]c2ccccc12)C(=O)N[C@@H](CC(C)C)C(=O)N[C@H](C(=O)N[C@@H](CCCNC(=N)N)C(=O)NCC(=O)N[C@@H](CCCNC(=N)N)C(=O)NCC(=O)O)C(C)C)[C@@H](C)CC)C(=O)O` [Liraglutide]: the share remaining at 1 h was 95.6%.
